Reference: PubChem BioAssay (NCI)
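Five compound concentrations were applied to cells in 96-well plates for 48 hours; endpoints were derived by simple linear interpolation of the resulting dose-response curve. Abbreviation: GI50, concentration required for 50% inhibition of growth. TGI is the concentration that stops growth completely.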

Legend:
Experiment in all cases: inhibition of tumour cell growth, NCI panel, 48 h
[1] = system: SK-MEL-5 melanoma
[2] = system: HL-60(TB) leukemia
[3] = system: KM12 colon
[4] = system: RXF 393 renal
[5] = system: OVCAR-8 ovarian
[6] = system: A549 NSCLC
[7] = system: SR leukemia
[8] = system: TK-10 renal
[9] = system: NCI-H23 lung
[10] = system: K-562 leukemia
[11] = system: NCI-H522 lung
[12] = system: M14 melanoma
[13] = system: MDA-MB-435
[14] = system: ACHN renal
[15] = system: A498 renal
[16] = system: COLO 205 colon
[17] = system: 786-0 renal
[18] = system: UO-31 renal
[19] = system: T-47D breast
[20] = system: CAKI-1 renal
[21] = system: SF-268 CNS
[22] = system: MCF7 breast
[23] = system: MDA-MB-231 breast
[24] = system: HT29 colon
[25] = system: BT-549 breast
[26] = system: SK-MEL-28 melanoma
[27] = system: LOX IMVI melanoma
[28] = system: IGROV1 ovarian
[29] = system: SN12C renal
[30] = system: OVCAR-5 ovarian
[31] = system: HCT-15 colon
[32] = system: SK-MEL-2 melanoma
[33] = system: NCI/ADR-RES ovarian
[34] = system: HCC-2998 colon
[35] = system: HOP-62 NSCLC
[36] = system: HS 578T breast
[37] = system: PC-3 prostate
[38] = system: NCI-H226 lung
[39] = system: CCRF-CEM leukemia
[40] = system: UACC-62 melanoma
[41] = system: SK-OV-3 ovarian
[42] = system: OVCAR-4 ovarian
[43] = system: RPMI-8226 leukemia
[44] = system: U251 CNS
[45] = system: SNB-19 CNS
[46] = system: SF-539 CNS
[47] = system: DU-145 prostate
[48] = system: HCT-116 colon
[49] = system: SNB-75 CNS
[50] = system: OVCAR-3 ovarian
[51] = system: HOP-92 NSCLC
[52] = system: SF-295 CNS
[53] = system: NCI-H460 lung
[54] = system: MALME-3M melanoma
[55] = system: MOLT-4 leukemia
[56] = system: SW-620 colon
[57] = system: EKVX NSCLC

SMILES: Cc1ccc(Cl)cc1-c1nc(N)nc(Nc2ccc(Br)cc2)n1
- GI50 [1]: 41.1 nM
- TGI [1]: > 100000 nM
- GI50 [2]: 30.5 nM
- GI50 [3]: 50.3 nM
- TGI [3]: > 100000 nM
- GI50 [4]: 30.9 nM
- TGI [4]: 3990 nM
- GI50 [5]: 74.5 nM
- TGI [5]: > 100000 nM
- GI50 [6]: 66.3 nM
- TGI [6]: > 100000 nM
- GI50 [7]: 36.1 nM
- TGI [7]: > 100000 nM
- GI50 [8]: 3290 nM
- TGI [8]: > 100000 nM
- GI50 [9]: 73.9 nM
- GI50 [10]: 42.2 nM
- TGI [10]: > 100000 nM
- GI50 [11]: 33.2 nM
- GI50 [12]: 41.4 nM
- TGI [12]: > 100000 nM
- GI50 [13]: 22.2 nM
- TGI [13]: 59.8 nM
- GI50 [14]: 91.1 nM
- TGI [14]: > 100000 nM
- GI50 [15]: 32.6 nM
- TGI [15]: 2470 nM
- GI50 [16]: 45.4 nM
- TGI [16]: 254 nM
- GI50 [17]: 59.6 nM
- TGI [17]: > 100000 nM
- GI50 [18]: 73.3 nM
- TGI [18]: > 100000 nM
- GI50 [19]: 22600 nM
- TGI [19]: > 100000 nM
- GI50 [20]: 19200 nM
- TGI [20]: > 100000 nM
- TGI [21]: > 100000 nM
- GI50 [22]: 45.6 nM
- TGI [22]: > 100000 nM
- GI50 [23]: 139 nM
- TGI [23]: > 100000 nM
- GI50 [24]: 36.5 nM
- GI50 [25]: 58.1 nM
- GI50 [26]: 126 nM
- TGI [26]: > 100000 nM
- GI50 [27]: 68.7 nM
- TGI [27]: > 100000 nM
- GI50 [28]: 150 nM
- TGI [28]: > 100000 nM
- GI50 [29]: 62.8 nM
- TGI [29]: > 100000 nM
- GI50 [30]: 358 nM
- TGI [30]: > 100000 nM
- GI50 [31]: 53.5 nM
- TGI [31]: > 100000 nM
- GI50 [32]: 69.2 nM
- TGI [32]: > 100000 nM
- GI50 [33]: 34.7 nM
- TGI [33]: 208 nM
- GI50 [34]: 160 nM
- GI50 [35]: 72.3 nM
- TGI [35]: > 100000 nM
- GI50 [36]: 45.5 nM
- TGI [36]: > 48500 nM
- GI50 [37]: 53.8 nM
- TGI [37]: > 100000 nM
- GI50 [38]: 1740 nM
- GI50 [39]: 44.4 nM
- GI50 [40]: 59.4 nM
- TGI [40]: > 100000 nM
- GI50 [41]: 51.7 nM
- TGI [41]: 21000 nM
- GI50 [42]: 274 nM
- TGI [42]: > 100000 nM
- GI50 [43]: 85.1 nM
- TGI [43]: > 100000 nM
- GI50 [44]: 46.1 nM
- TGI [44]: 8720 nM
- GI50 [45]: 83.2 nM
- TGI [45]: > 100000 nM
- GI50 [46]: 40.6 nM
- TGI [46]: > 29000 nM
- GI50 [47]: 69 nM
- TGI [47]: > 56500 nM
- GI50 [48]: 43.5 nM
- TGI [48]: > 100000 nM
- GI50 [49]: 29 nM
- TGI [49]: > 100000 nM
- GI50 [50]: 31.7 nM
- GI50 [51]: 2280 nM
- TGI [51]: > 100000 nM
- GI50 [52]: 41 nM
- TGI [52]: > 100000 nM
- GI50 [53]: 38.5 nM
- TGI [53]: > 38700 nM
- GI50 [54]: 70.3 nM
- TGI [54]: > 100000 nM
- GI50 [55]: 88.3 nM
- TGI [55]: > 22100 nM
- GI50 [56]: 40.8 nM
- TGI [56]: > 100000 nM
- GI50 [57]: 667 nM
- TGI [57]: > 100000 nM
